According to ChEMBL document CHEMBL3228000, “Absolute configuration of glycerol derivatives. 7. Enantiomers of 2-[[[2-(2,6-dimethoxyphenoxy)ethyl]amino]methyl]-1,4-benzodioxane (WB-4101), a potent competitive alpha-adrenergic antagonist” (J Med Chem, 1979):

Assays:
[1] = Competitive antagonist at alpha-adrenergic receptor in New Zealand rabbit aorta assessed as methoxamine-induced contraction after 45 mins; type: tissue-based, Oryctolagus cuniculus
[2] = molecular target: Adrenergic receptor alpha; assay: Antagonist at postsynaptic alpha-adrenergic receptor in rat vas deferens; type: tissue-based

Structure (SMILES) | pA2 [1] | pA2 [2]
COc1cccc(OC)c1OCCNC[C@@H]1COc2ccccc2O1.Cl | 7.35 | 
COc1cccc(OC)c1OCCNC[C@H]1COc2ccccc2O1.Cl | 9.02 | 
COc1cccc(OC)c1OCCNCC1COc2ccccc2O1 (racemic) | 8.83 | 9.8
